Several values for one entry are separate records, joined by “and”; a condition that tells them apart may be missing. Equal values may be shown once. Where a SMILES comes first, the peptide text is derived from it. [ ]: non-standard residue; d: D form. Hyp = O=C(O)[C@@H]1C[C@@H](O)CN1
System: CCL3/MIP-1 alpha
Experiment: Example 8 main study Luminex, LPS hPBMCs: CCL3/MIP-1 alpha
Assay type: cell-based, human
Conditions: for LPS-induced CCL-3 (in words): at as low as 5 μM, LPS 5 ug/mL 24 hrs
Description: Human PBMCs were pretreated with YY-101, YDE-011, YDE-043 or reference compound; Xiidra® at various concentration (ranging from […] to 500 nM) for 2 h before stimulation. An equal volume of 0.5% DMSO was used as a vehicle control. Then, the cells were treated with LPS at 5 ug/ml, which was selected based on the pilot study. The supernatants from treated cells were harvested at 24 h and placed in a 96 well for Luminex cytokine & chemokine profiling using a Luminex 200 multiplex assay (Luminex; R&D system, USA).
The main study arm with triplicate wells per group in a 24-well plate: • 1. Blank • 2. PBMC: 0.5% DMSO • 3. PBMC+LPS (5 ug/ml) • 4. PBMC+YY-101 500 nM • 5. PBMC+YY-101 50 nM • 6. PBMC+YY-101 5 nM • 7. PBMC+YY-101 0.5 nM • 8. PBMC+LPS (5 ug/ml)+Xiidra® 500 nM • 9. PBMC+LPS (5 ug/ml)+Xiidra® 50 nM • 10. PBMC+LPS (5 ug/ml)+Xiidra® 5 nM • 11. PBMC+LPS (5 ug/ml)+Xiidra® 0.5 nM • 12. PBMC+LPS (5 ug/ml)+Xiidra® 0.05 nM • 13. PBMC+LPS (5 ug/ml)+Xiidra® 0.005 nM • 14. PBMC+LPS (5 ug/ml)+YY-101 500 nM • 15. PBMC+LPS (5 ug/ml)+YY-101 50 nM • 16. PBMC+LPS (5 ug/ml)+YY-101 5 nM • 17. PBMC+LPS (5 ug/ml)+YY-101 0.5 nM • 18. PBMC+LPS (5 ug/ml)+YY-101 0.05 nM • 19. PBMC+LPS (5 ug/ml)+YY-101 0.005 nM • 20. PBMC+LPS (5 ug/ml)+YDE-011 500 nM • 21. PBMC+LPS (5 ug/ml)+YDE-011 50 nM • 22. PBMC+LPS (5 ug/ml)+YDE-011 5 nM • 23. PBMC+LPS (5 ug/ml)+YDE-011 0.5 nM • 24. PBMC+LPS (5 ug/ml)+YDE-011 0.05 nM • 25. PBMC+LPS (5 ug/ml)+YDE-011 0.005 nM • 26. PBMC+LPS (5 ug/ml)+YDE-043 500 nM • 27. PBMC+LPS (5 ug/ml)+YDE-043 50 nM • 28. PBMC+LPS (5 ug/ml)+YDE-043 5 nM • 29. PBMC+LPS (5 ug/ml)+YDE-043 0.5 nM • 30. PBMC+LPS (5 ug/ml)+YDE-043 0.05 nM • 31. PBMC+LPS (5 ug/ml)+YDE-043 0.005 nM
Multiplex assay was used to measure 30 cytokines and chemokines. The 1:200 diluted cell supernatant and serial dilution of the standard were dispensed into a 96 well plate at 50 ul/well. Then, the pre-mixed cocktail of antibody-coated magnetic beads was dispensed at 50 ul/well and incubated at room temperature for 2 h in a horizontal orbital microplate shaker at 800±500 rpm. The beads were washed using a magnetic device to prevent loss. The biotin-antibody was dispensed in 50 ul of each well and incubated at room temperature for 1 h in a shaker at 800±500 rpm. After washing, streptavidin-PE was added at 50 ul/well and incubated at room temperature for 30 min in a shaker under the same conditions. Finally, after washing, wash buffer (100 ul/well) was added to the plate and incubated in a shaker for 2 min. The Luminex™ 200 setting were set according to the manufacturer's protocol. The data was calculated with a standard five-parameter logistic nonlinear regression analysis of the data (xPonent software 4.2, USA). Results were presented as concentration (ng/ml or pg/ml).

[1] = PBMC + LPS(5 ug/ml) + test article 0.005 nM, Mean
[2] = PBMC + LPS(5 ug/ml) + test article 0.005 nM, single replicates
[3] = PBMC + LPS(5 ug/ml) + test article 0.05 nM, Mean
[4] = PBMC + LPS(5 ug/ml) + test article 0.05 nM, single replicates
[5] = PBMC + LPS(5 ug/ml) + test article 0.5 nM, Mean
[6] = PBMC + LPS(5 ug/ml) + test article 0.5 nM, single replicates
[7] = PBMC + LPS(5 ug/ml) + test article 5 nM, Mean
[8] = PBMC + LPS(5 ug/ml) + test article 5 nM, single replicates
[9] = PBMC + LPS(5 ug/ml) + test article 50 nM, Mean
[10] = PBMC + LPS(5 ug/ml) + test article 50 nM, single replicates
[11] = PBMC + LPS(5 ug/ml) + test article 500 nM, Mean
[12] = PBMC + LPS(5 ug/ml) + test article 500 nM, single replicates

## CC(C)C[C@H](NC(=O)CNC(=O)[C@H](CC(C)C)NC(=O)[C@H](CCC(N)=O)NC(=O)CNC(=O)[C@@H]1C[C@@H](O)CN1)C(=O)N[C@@H](C)C(=O)NCC(=O)N1CCC[C@H]1C(=O)N[C@@H](CCCCN)C(=O)O [YDE-011] (H-[Hyp]GQLGLAGPK-OH)
[1]
  CCL3/MIP-1 alpha Concentration: 30631.2 pg/mL
  CCL3/MIP-1 alpha MFI: 40.8
[2]
  CCL3/MIP-1 alpha Concentration: 31818.4 pg/mL and 28790.7 pg/mL and 31284.6 pg/mL
  CCL3/MIP-1 alpha MFI: 43.0 and 37.5 and 42.0
[3]
  CCL3/MIP-1 alpha Concentration: 34293.4 pg/mL
  CCL3/MIP-1 alpha MFI: 47.8
[4]
  CCL3/MIP-1 alpha Concentration: 34390.9 pg/mL and 32865.8 pg/mL and 35623.4 pg/mL
  CCL3/MIP-1 alpha MFI: 48.0 and 45.0 and 50.5
[5]
  CCL3/MIP-1 alpha Concentration: 30465.1 pg/mL
  CCL3/MIP-1 alpha MFI: 40.5
[6]
  CCL3/MIP-1 alpha Concentration: 31284.6 pg/mL and 29639.8 pg/mL and 30470.7 pg/mL
  CCL3/MIP-1 alpha MFI: 42.0 and 39.0 and 40.5
[7]
  CCL3/MIP-1 alpha Concentration: 27362.3 pg/mL
  CCL3/MIP-1 alpha MFI: 35.2
[8]
  CCL3/MIP-1 alpha Concentration: 25497.0 pg/mL and 26119.3 pg/mL and 30470.7 pg/mL
  CCL3/MIP-1 alpha MFI: 32.0 and 33.0 and 40.5
[9]
  CCL3/MIP-1 alpha Concentration: 28334.6 pg/mL
  CCL3/MIP-1 alpha MFI: 37.3
[10]
  CCL3/MIP-1 alpha Concentration: 32865.8 pg/mL and 21122.8 pg/mL and 31015.1 pg/mL
  CCL3/MIP-1 alpha MFI: 45.0 and 25.5 and 41.5
[11]
  CCL3/MIP-1 alpha Concentration: 27851.5 pg/mL
  CCL3/MIP-1 alpha MFI: 36.8
[12]
  CCL3/MIP-1 alpha Concentration: 34390.9 pg/mL and 19244.9 pg/mL and 29918.7 pg/mL
  CCL3/MIP-1 alpha MFI: 48.0 and 23.0 and 39.5
  LPS-induced CCL-3 (in words): significantly reduced

## CC(C)C[C@H](NC(=O)[C@H](CCC(N)=O)NC(=O)CNC(=O)[C@@H]1C[C@@H](O)CN1)C(=O)NCC(=O)O [YDE-043] (H-[Hyp]GQLG-OH; N-terminus and C-terminus assumed)
[1]
  CCL3/MIP-1 alpha Concentration: 38526.9 pg/mL
  CCL3/MIP-1 alpha MFI: 57.3
[2]
  CCL3/MIP-1 alpha Concentration: 32345.4 pg/mL and 37296.1 pg/mL and 45939.1 pg/mL
  CCL3/MIP-1 alpha MFI: 44.0 and 54.0 and 74.0
[3]
  CCL3/MIP-1 alpha Concentration: 29535.1 pg/mL
  CCL3/MIP-1 alpha MFI: 38.8
[4]
  CCL3/MIP-1 alpha Concentration: 28213.9 pg/ml and 30195.7 pg/ml (2×)
  CCL3/MIP-1 alpha MFI: 36.5 and 40.0 (2×)
[5]
  CCL3/MIP-1 alpha Concentration: 30000.1 pg/mL
  CCL3/MIP-1 alpha MFI: 39.7
[6]
  CCL3/MIP-1 alpha Concentration: 29639.8 pg/mL and 31284.6 pg/mL and 29075.9 pg/mL
  CCL3/MIP-1 alpha MFI: 39.0 and 42.0 and 38.0
[7]
  CCL3/MIP-1 alpha Concentration: 31809.4 pg/mL
  CCL3/MIP-1 alpha MFI: 43.0
[8]
  CCL3/MIP-1 alpha Concentration: 31818.4 pg/mL and 32865.8 pg/mL and 30743.9 pg/mL
  CCL3/MIP-1 alpha MFI: 43.0 and 45.0 and 41.0
[9]
  CCL3/MIP-1 alpha Concentration: 31754.6 pg/mL
  CCL3/MIP-1 alpha MFI: 43.0
[10]
  CCL3/MIP-1 alpha Concentration: 33380.1 pg/ml (2×) and 28503.4 pg/ml
  CCL3/MIP-1 alpha MFI: 46.0 (2×) and 37.0
[11]
  CCL3/MIP-1 alpha Concentration: 28096.2 pg/mL
  CCL3/MIP-1 alpha MFI: 36.3
[12]
  CCL3/MIP-1 alpha Concentration: 28503.4 pg/mL and 26426.3 pg/mL and 29358.9 pg/mL
  CCL3/MIP-1 alpha MFI: 37.0 and 33.5 and 38.5
  LPS-induced CCL-3 (in words): significantly reduced

— US20230146455A1, “TREATMENT OF INFLAMMATORY DISEASES WITH PEPTIDES AND PHARMACEUTICAL COMPOSITIONS” (Yuyu Pharma, Inc., priority 2020, published 2023)
